Paper PMC6694100, “The complex of ferric-enterobactin with its transporter from Pseudomonas aeruginosa suggests a two-site model” (Nature Communications, 2019)
Where “and” joins values, the source holds several entries; their conditions need not be identical. Identical values can stand only once.

Assays:
[1] = parameters: method as in doi:10.1021/ja00514a037, PMID 12453412; details: cited from earlier work
[2] = tested on: ∆pfeA(pMMBpfeA) cells (native PfeA); assay: 55Fe-enterobactin binding and uptake assay, ∆pfeA(pMMBpfeA); type: cell-based, Pseudomonas aeruginosa; details: cells not treated with CCCP, 500 nM ^55Fe-enterobactin, 30 min
Description: (§1) Fig. 6 Effects of PfeA mutation in vivo. a Analysis of changes in the transcription of pfeA gene. PAO1 strain, its corresponding deletion mutant ∆pfeA and deletion mutants carrying the expression plasmid of PfeA wild-type (∆pfeA(pMMBpfeA) or the R480A-Q482A mutant (∆pfeA(pMMBpfeAR480AQ482A)) were grown in CAA medium supplemented with 10 µM enterobactin. The data were normalised relative to the reference gene uvrD, and are representative of three independent experiments performed in triplicate (n = 3). The results are given as a ratio between the values obtained for ∆pfeA, ∆pfeA(pMMBpfeA) and ∆pfeA(pMMBpfeAR480AQ482A) over those obtained for the PAO1 strain. b ^55Fe-enterobactin binding at the bacterial surface. Cells were grown as in panel a, and were incubated for 15 min with 200 µM CCCP before initiation of transport assays by the addition of 500 nM ^55Fe-enterobactin. After 30 min incubation, the radioactivity accumulated in the bacteria was counted. The results are expressed as pmol of ^55Fe-enterobactin bound per ml of cells at an OD600 of 1. The experiments have been repeated three times. c ^55Fe-enterobactin binding and uptake. Cells were grown as in panel a, and were incubated with or without 200 µM CCCP before initiation of transport assays by the addition of 500 nM ^55Fe-enterobactin. After 30 min incubations, the radioactivity accumulated in the bacteria was counted. The results are expressed as pmol of ^55Fe-enterobactin bound and transported per ml of cells at an OD600 of 1. The experiments have been repeated three times
(§2) The complex was prepared at ^55Fe concentrations of 50 μM, with a siderophore:iron (mol:mol) ratio of 20:1. P. aeruginosa strains were first grown overnight at 30 °C in LB broth, and were then washed, resuspended and cultured overnight at 30 °C in iron-deficient CAA medium (casamino acid medium, composition: 5 g.l^−1 low-iron CAA (Difco), 1.46 g.l^−1 K2HPO4 3H2O, 0.25 g.l^−1 MgSO4 7H2O) and in the presence of 10 µM enterobactin to induce the expression of PfeA. CAA is a highly iron-restricted medium with iron concentrations of 20 nM[59]. Afterwards bacteria were washed with 50 mM Tris-HCl pH 8.0, and diluted to an OD600 of 1. Cells solutions were divided in two, one batch being treated with 200 μM CCCP. This compound collapses the proton-motive force across the bacterial cell membranes, inhibiting TonB-dependent iron uptake. Binding and transport assays were initiated by adding 500 nM ^55Fe-enterobactin to the bacterial solutions treated or not with CCCP. After 30 min of incubations, cells were centrifuged, and the radioactivity associated to the bacteria was monitored in the cell pellets. For the cells treated with CCCP, the radioactivity in the cell pellets corresponds to the binding of ^55Fe-enterobactin to P. aeruginosa cell surface, since no uptake occurs. In the absence of CCCP, the radioactivity associated to the cells corresponds to ^55Fe-enterobactin binding to the cell surface and the uptake into the bacteria.

[3] = tested on: ∆pfeA(pMMBpfeAR480AQ482A) cells (double-mutant PfeA); assay: 55Fe-enterobactin binding and uptake assay, ∆pfeA(pMMBpfeAR480AQ482A); type: cell-based, Pseudomonas aeruginosa; details: 500 nM ^55Fe-enterobactin, 30 min
Description: as §1, §2

pfeA gene = assay: RT-qPCR of pfeA gene transcription in strains grown with 10 µM enterobactin; type: cell-based, Pseudomonas aeruginosa; details: replicate values, Figure 6a
Description: Fig. 6 Effects of PfeA mutation in vivo. a Analysis of changes in the transcription of pfeA gene. PAO1 strain, its corresponding deletion mutant ∆pfeA and deletion mutants carrying the expression plasmid of PfeA wild-type (∆pfeA(pMMBpfeA) or the R480A-Q482A mutant (∆pfeA(pMMBpfeAR480AQ482A)) were grown in CAA medium supplemented with 10 µM enterobactin. The data were normalised relative to the reference gene uvrD, and are representative of three independent experiments performed in triplicate (n = 3). The results are given as a ratio between the values obtained for ∆pfeA, ∆pfeA(pMMBpfeA) and ∆pfeA(pMMBpfeAR480AQ482A) over those obtained for the PAO1 strain. b ^55Fe-enterobactin binding at the bacterial surface. Cells were grown as in panel a, and were incubated for 15 min with 200 µM CCCP before initiation of transport assays by the addition of 500 nM ^55Fe-enterobactin. After 30 min incubation, the radioactivity accumulated in the bacteria was counted. The results are expressed as pmol of ^55Fe-enterobactin bound per ml of cells at an OD600 of 1. The experiments have been repeated three times. c ^55Fe-enterobactin binding and uptake. Cells were grown as in panel a, and were incubated with or without 200 µM CCCP before initiation of transport assays by the addition of 500 nM ^55Fe-enterobactin. After 30 min incubations, the radioactivity accumulated in the bacteria was counted. The results are expressed as pmol of ^55Fe-enterobactin bound and transported per ml of cells at an OD600 of 1. The experiments have been repeated three times […]
Specific pfeA gene transcription was measured by reverse transcription-quantitative PCR (RT-qPCR) from 16 h cultures in CAA medium as described in Supplementary Methods. […]
The supernatant […]
was discarded, and inner membrane proteins were solubilized in lysis buffer with 1% (w/v) N-lauroylsarkosine (Sigma-Aldrich). […]
Quantitative real-time PCR. […] The amounts of specific cDNA were assessed in a StepOne Plus instrument (Applied Biosystems) by using a Power Sybr Green PCR Master Mix […]

## O=C(N[C@H]1COC(=O)[C@@H](NC(=O)c2cccc(O)c2O)COC(=O)[C@@H](NC(=O)c2cccc(O)c2O)COC1=O)c1cccc(O)c1O [Enterobactin, enterobactin]
[1]
  stability when not bound to iron: easily degraded
[2]
  ^55Fe-enterobactin binding and uptake: actively taken up
[3]; CCCP treated cells (200 µM)
  ^55Fe-enterobactin binding at the bacterial surface: does not bind
[3]; cells not treated with CCCP
  ^55Fe-enterobactin binding and uptake: not competent for the uptake
pfeA gene; strain ΔpfeA (pMMBpfeA R480AQ482A)
  pfeA gene transcription (RT-qPCR): 105.534 and 104.018 and 99.7495 and 101.79 and 78.5683 and 111.303 and 100.693 and 97.5736 and 107.445
pfeA gene; strain ΔpfeA (pMMBpfeA)
  pfeA gene transcription (RT-qPCR): 181.293 and 171.592 and 180.688 and 175.586 and 141.721 and 155.679 and 152.232 and 181.628 and 183.778
pfeA gene; strain ΔpfeA
  pfeA gene transcription (RT-qPCR): 0.006806 and 0.03712 and 0.02449 and 0.03211 and 0.01571 and 0.01618 and 0.0116 and 0.02148 and 0.01134
